Measurements as given in US5776685A, “Protein kinase C assay” (Joslin Diabetes Center, priority 1996, dated 1998).

Experiments:
[1] = system: bovine PKC alpha; experiment: PKC catalytic activity in vitro (phosphorylation of [ser25]PKC19-31 in detergent cell extracts); assay type: biochemical; settings: for PMA and Ca^2+ stimulated mutant PKC activity: Ca^2+: Ca^2+ stimulation of in vitro catalytic activity; for PMA and Ca^2+ stimulated mutant PKC activity: PMA: PMA stimulation, common symbol for in vitro catalytic activity and PMA-mediated increase of cell doubling time; for PMA and Ca^2+ stimulated mutant PKC activity: -: no stimulus (basal), common symbol for in vitro catalytic activity and cell doubling time response; for inhibition of PKC alpha catalytic activity / activation of PKC alpha in vitro: PKC alpha expressed in yeast
Description: FIG. 4 is a graph which compares PKC mutant and wild type catalytic activities in vitro. […] Catalytic activity was stimulated by combinations of phosphatidylserine (PS), the phorbol ester PMA and calcium ions (Ca^2+). PS, open; PMA+PS, solid; Ca^2+ +PS, diagonally striped.
Cell lysis. About 6×10^8 expressing cells were washed in PBS and were resuspended in 1 ml lysis buffer containing 1% Triton X100, 50 mM Hepes pH 7.4, 15-mM NaC1, 5 mM EDTA, 5 mM EGTA, 10 μg/ml pepstatin, 40 μg/ml leupeptin, 10 μg/ml aprotinin and 200 μg/ml PMSF. Cell suspensions mixed with the same volume of acid washed glass beads (450-500 μm) were lysed mechanically by six 30 second vortexing steps interrupted by cooling on ice for at least 30 second in 50 ml screw cap polypropylene tubes. The lysate was cleared by 4,000 g centrifugation for 15 minutes at 4 degrees C and stored at […] for up to several weeks.
PKC catalytic activity. […] Phosphatidylserine in chloroform, with or without PMA was evaporated under N2 to dryness, resuspended in 20 mM Tris pH 7.5, mixed and sonicated at 4 degrees C for 45 seconds before use. To terminate the reaction the sample was placed on phosphocellulose paper (Whatman P81) which was repeatedly washed in 75 mM phosphoric acid. Bound radioactivity was determined by liquid scintillation spectroscopy.

[2] = system: Saccharomyces cerevisiae strain 334 expressing bovine PKC alpha; experiment: Cell doubling time of yeast cultures expressing PKC alpha wild type and mutant cDNAs; assay type: cell-based; settings: wild-type yeast cells without mammalian PKC, 1 μM PMA
Description: FIG. 2 is a graph of cell doubling time of yeast cultures expressing PKC alpha wild type and mutant cDNAs. Freshly saturated cultures expressing control plasmids (Cont.), normal PKC alpha (PKCa) or deletion mutants D172-225, ND153 or CD26 were diluted to low cell densities. Cell growth was followed on a roller at 30 degrees C to measurable cell densities of the logarithmic growth phase at 0.2-0.6 O.D. 600. […] Average doubling times were calculated.
Yeast strains and culture conditions. PKC expression plasmids and YEp51 or YEp52 as controls were introduced into Saccharomyces cerevisiae strain 334 [MAT alpha, pep 4-3, prb1-122, ura 3-52; leu2-3, 112, reg1-501, gal1]by lithium acetate transformation See e.g., Ito et al. 1983, J. Bacterial. 153: 163. Cells were routinely grown at 30 degrees C on a culture roller or shaker in liquid culture or on 1.5% agar plates. The synthetic medium contained 2% glucose and was leucine-free to select for stable propagation of the expression plasmids. Expressing yeast colonies were identified phenotypically by replica plating on medium containing or lacking PMA. Phenol extracts of crude cell lysates were prepared to re-transform Escherichia coli DH5 alpha. PKC mutants were characterized by DNA sequencing and defined plasmids were re-introduces into S. cerevisiae 334. These strains were used in all experiments shown. 50 ml cultures were routinely inoculated from freshly saturated cultures and grown for 16 h to an optical density of 0.4 at O.D.600.
Cell doubling times were measured by O.D.600 reading of liquid cultures in the presence of 2% galactose as shown in FIG. 2 to test whether they correlate with the specific phenotypes (colony size) caused by normal mutant PKC alpha. […] A normal 4 hours doubling time was measured for all constructs in the absence of galactose.

Molecule: CD110: PKC alpha deletion mutant lacking 110 carboxyl terminal aa
- PMA and Ca^2+ stimulated mutant PKC activity: Ca^2+ [1]: -
- PMA and Ca^2+ stimulated mutant PKC activity: PMA [1]: -
- PMA and Ca^2+ stimulated mutant PKC activity: - [1]: -

Molecule: CN(C)c1ccc2cc3ccc(N(C)C)cc3nc2c1 [acridine orange, reference compound]
- inhibition of PKC alpha catalytic activity [1]: efficiently inhibited

Molecule: polymyxin B [reference compound]
- inhibition of PKC alpha catalytic activity [1]: efficiently inhibited

Molecule: CC(C)[C@H]1C(=O)N[C@H](CO)Cc2c[nH]c3cccc(c23)N1C [(-)-indolactam V, reference compound]
- activation of PKC alpha in vitro [1]: efficiently activated

Molecule: CD139: PKC alpha deletion mutant lacking 139 carboxyl terminal aa
- PMA and Ca^2+ stimulated mutant PKC activity: Ca^2+ [1]: -
- PMA and Ca^2+ stimulated mutant PKC activity: PMA [1]: -
- PMA and Ca^2+ stimulated mutant PKC activity: - [1]: -

Molecule: ND158: PKC alpha deletion mutant lacking 158 amino terminal aa
- PMA and Ca^2+ stimulated mutant PKC activity: Ca^2+ [1]: ++
- PMA and Ca^2+ stimulated mutant PKC activity: PMA [1]: +
- PMA and Ca^2+ stimulated mutant PKC activity: - [1]: +

Molecule: C=C(C)C12OC3(c4ccccc4)OC1C1C4OC4(CO)C(O)C4(O)C(=O)C(C)=CC4C1(O3)C(C)C2OC(=O)/C=C/C=C/c1ccccc1 (stereo not drawn) [mezerein, reference compound]
- activation of PKC alpha in vitro [1]: efficiently activated

Molecule: CC1=C[C@H]2[C@@]3(O)[C@H](C)C[C@]4(OC(=O)Cc5ccccc5)[C@H]([C@@H]3C=C(CO)C[C@]2(O)C1=O)C4(C)C [dPP, 12-deoxyphorbol 1 3-phenylacetate, reference compound]
- activation of PKC alpha in vitro [1]: efficiently activated

Molecule: CD96: PKC alpha deletion mutant lacking 96 carboxyl terminal aa
- PMA and Ca^2+ stimulated mutant PKC activity: Ca^2+ [1]: -
- PMA and Ca^2+ stimulated mutant PKC activity: PMA [1]: -
- PMA and Ca^2+ stimulated mutant PKC activity: - [1]: -

Molecule: CCCCCCCCCCN(C)c1cc(CO)cc(NC(C)=O)c1 [ADMB, 3-(N-acetylamino)-5(N-decyl-N-methylamino) benzyl alcohol, reference compound]
- activation of PKC alpha in vitro [1]: efficiently activated

Molecule: CCCCCCCCCCCCCC(=O)O[C@@H]1[C@@H](C)[C@@]2(O)[C@@H](C=C(CO)C[C@]3(O)C(=O)C(C)=C[C@@H]23)[C@@H]2C(C)(C)[C@]12OC(C)=O [PMA, phorbol-12-myristate-13-acetate, reference compound]
- response of wild-type yeast cells (doubling time, colony size) [2]: did not respond
- activation of PKC alpha in vitro [1]: efficiently activated

Molecule: CC1CNCCN1S(=O)(=O)c1cccc2cnccc12 (racemic) [H-7, reference compound]
- inhibition of PKC alpha catalytic activity [1]: efficiently inhibited

Molecule: CCCCCCCCCCNc1cc(CO)c2cc[nH]c2c1 [DHI, 6-(N-decylamino)-4-hydroxymethylindole, reference compound]
- activation of PKC alpha in vitro [1]: efficiently activated

Molecule: CCCCCCCCCCCCC/C=C/[C@@H](O)[C@@H](N)CO[C@@H]1O[C@H](CO)[C@H](O)[C@H](O)[C@H]1O [psychosine, reference compound]
- inhibition of PKC alpha catalytic activity [1]: efficiently inhibited

Molecule: CC1=CC23C(=O)C(C=C(COC(=O)c4ccccc4)C(O)C2(O)C1OC(=O)c1ccccc1)C1C(CC3C)C1(C)C (stereo not drawn) [ID, ingenol 3,20-dibenzoate, reference compound]
- activation of PKC alpha in vitro [1]: efficiently activated

Molecule: CD149: PKC alpha deletion mutant lacking 149 carboxyl terminal aa
- PMA and Ca^2+ stimulated mutant PKC activity: Ca^2+ [1]: -
- PMA and Ca^2+ stimulated mutant PKC activity: PMA [1]: -
- PMA and Ca^2+ stimulated mutant PKC activity: - [1]: -

Molecule: ND84: PKC alpha deletion mutant lacking 84 amino terminal aa
- PMA and Ca^2+ stimulated mutant PKC activity: Ca^2+ [1]: ++
- PMA and Ca^2+ stimulated mutant PKC activity: PMA [1]: +
- PMA and Ca^2+ stimulated mutant PKC activity: - [1]: +

Molecule: ND 140: PKC alpha deletion mutant lacking 140 amino terminal aa
- PMA and Ca^2+ stimulated mutant PKC activity: Ca^2+ [1]: ++
- PMA and Ca^2+ stimulated mutant PKC activity: PMA [1]: +
- PMA and Ca^2+ stimulated mutant PKC activity: - [1]: +

Molecule: Cc1cc(N)c2ccccc2[n+]1CCCCCCCCCC[n+]1c(C)cc(N)c2ccccc21 [dequalinium, reference compound]
- inhibition of PKC alpha catalytic activity [1]: efficiently inhibited

Molecule: COc1ccc2c(c[n+](C)c3c4cc5c(cc4ccc23)OCO5)c1OC [chelerythrine, reference compound]
- inhibition of PKC alpha catalytic activity [1]: efficiently inhibited

Molecule: ND188: PKC alpha deletion mutant lacking 118 amino terminal aa (printed ND188 in Table 1)
- PMA and Ca^2+ stimulated mutant PKC activity: Ca^2+ [1]: ++
- PMA and Ca^2+ stimulated mutant PKC activity: PMA [1]: +
- PMA and Ca^2+ stimulated mutant PKC activity: - [1]: +

Molecule: CN1CCN(CCCN2c3ccccc3Sc3ccc(C(F)(F)F)cc32)CC1 [trifluoperazine, reference compound]
- inhibition of PKC alpha catalytic activity [1]: efficiently inhibited
